We go through two molecules from patent US20070203079A1, “Methods of using small molecule compounds for neuroprotection” (priority 2005, published 2007).

Counter-ions that a name gives are not always drawn. Marks after values point to notes of the source that are not given here.

In data set [1] the test system is protein misfolding and aggregation in transgenic worms. Briefly: Preventative assay of protein aggregation (drug from hatching to L2 stage). The format is in vivo, C. elegans. Particulars: exposure from hatching to L2 stage; scored at L3 and young adult. On the procedure: To see the preventative effects of the candidate drug compounds on protein misfolding and aggregation, five gravid adult worms were placed onto each drug plate and grown at 20° C. for approximately 3 days. 35-40 Fl worms at L2 stage were picked and transferred to a control plate with the same concentration of control solvent compared to the drug plate. Thirty worms at L3 stage were counted for aggregate number 8 hours later. Thirty young adults were analyzed 32 hours later.
To calculate the scaled effectiveness of special regimen of drugs on worms based on standardized decrease in protein aggregates. The following formula was used: (A−B)/(A−C)×100%, where
A=number of aggregates for worms growing on solvent control plates
B=number of aggregates for worms grown on the specific drug plate for the entire life of the worms
C=number of aggregates for worms that received pre-L2 exposure and were then removed to solvent control plates
If the regimen has no effect, the value would equal 0%. Conversely, if the regimen was as effective as raising the worms on the drug for their entire life, the value would equal 100%.

Data set [2] has as its system worms expressing Punc-54::Q82::GFP+Punc-54::torsinA with wt torsinA only. Briefly: Protein aggregate assay in worms with wt torsinA only. It counts as in vivo, C. elegans. As to the method:
(§1) C elegans nematodes were grown at 20° C. on NGM plates as described by Brenner (Brenner, Genetics, 1974, 77: 71-94). Several transgenic C. elegans lines were used for primary screens of the Prestwick small molecule library. A transgenic worm line expressing Punc-54::Q82-GFP; with both wild type (“wt”) (Punc=54: :torsinA) or mutant (Punc-54::torsinA(ΔE)). Torsin-A expresses a phenotype that results in visible protein aggregation under fluorescent microscope. Transgenic worms were plated on drug plates and progeny were studied for a return to soluble protein.
(§2) Drugs were administered to C. elegans according to a standard procedure (Rand and Johnson, Methods Cell Biol, 1995, 48: 187-204), by mixing the solubilized drug with the agar medium on which the worms are grown. This mode of administration allows the continuous exposure of worms to the drug.
Each drug was first dissolved in an appropriate solvent, followed by adding the drug solution into pre-autoclaved media, with the volume of drug solution already taken into account. […]
(§3) The screening assays used to identify the compounds use protein aggregation readouts to determine the specificities of molecular action. […]
(§4) The methods for the aggregate analysis assay are described in Caldwell et al. (Hum Mol Genetics, 2003, 12(3): 307-319). […] MetaMorph Software (Universal Imaging Inc.) was used for pseudocoloration of images, image overlay, and aggregate size quantitation. For each worm line analyzed, average aggregate size was determined by capturing images of all aggregates in the posterior region of 30 L3-staged animals (for Q82::GFP aggregates) or all aggregates in 30 adult animals/day (for Q19::GFP analyses) at 1000× magnification. […]
(§5) To see the effect of the candidate compounds on suppressing protein misfolding and aggregation, five gravid adult worms were placed onto each drug plate and grown at 20° C. for approximately 3 days. Thirty Fl worms at L3 stage and young adult stage were counted for aggregate number.

In data set [3] the test system is Pdat-1::GFP+Pdat-1::α-synuclein+Pdat-1:: torsinA (ΔE) worms. Briefly: α-synuclein toxicity assay, mutant torsinA. The format is in vivo, C. elegans. From the text: (§6) We have previously shown that torsinA can prevent dopamine (“DA”) neuron degeneration resulting from overexpression of α-synuclein in the DA neurons of C. elegans, while torsinA (“ΔE”) has a reduced neuroprotection (Cao et al., J Neurosci, 2005, 25(1): 3801-3812). Specifically, only 26.1±5.3% of the worms expressing Pdat-1::GFP+Pdat-1::α-synuclein maintained all 4 wildtype CEP DA neurons as 4 day adults while the percentages of the worms expressing Pdat-1::GFP+Pdat-1::α-synuclein+Pdat-1::torsinA and Pdat-1::GFP+Pdat-1::α-synuclein+Pdat-1:: torsinA (ΔE) are 57.3±1.6% and 42.2±7.3%, respectively (Cao et al., J Neurosci, 2005, 25(1): 3801-3812) (FIG. 8).
(§7) All molecules are coded by Prestwick Library number. TorsinA-dependent compounds identified from the aggregation assay have torsinA-specific effects and, therefore, are likely to function in the same manner in the α-synuclein toxicity assay. All three α-synuclein transgenic lines were exposed to the five torsinA-dependent compounds to determine their torsinA-specificity (FIG. 9). As expected, none of these compounds had any effect in Pdat-1::GFP+Pdat-1::α-synuclein when torsinA expression is absent.

The conditions of data set [4]: 1 gram/kg dose, fasting normal individual; cited from earlier work.
For data set [5], the system named is worms containing Punc-54::Q82::GFP+Punc-54::torsinA+Punc54::torsinA (ΔE). Briefly: Screen for reduction of polyglutamine protein aggregates in worms with wt and mutant torsinA. The format is in vivo, C. elegans. Particulars: differentiated by Q82::GFP lines without torsinA, with wt torsinA or with mutant torsinA. On the procedure:
as §1, §2
Each drug was first dissolved in an appropriate solvent, followed by adding the drug solution into pre-autoclaved media, with the volume of drug solution already taken into account. […] Each plate was seeded with 100 μl concentrated E. coli OP50 bacteria.
as §3, §4, §5

For data set [6], the system named is Pdat-1::GFP+Pdat-1::α-synuclein+Pdat-1::torsinA worms. Kind of data set: α-synuclein toxicity assay, wt torsinA. The format is in vivo, C. elegans.
Text: as §6, §7

The subject of another data set is GFP::DAT-1. Briefly: Pdat-1::GFP::DAT-1 expression within DA neurons. The format is in vivo, C. elegans. The note with it: for Neurons with cell body and dendritic/axonal GFP: water control 70%; for Neurons with cell body and dendritic/axonal GFP / Mean pixel intensity of cell bodies ± SEM (fluorescence intensity): sodium salt; for Mean pixel intensity of cell bodies ± SEM (fluorescence intensity): water control 1970 ± 80, compounds at 1.85, 1.49, 1.86 mM.

Data set [7] has as its system transgenic worms containing the transgene Pdat-1::GFP without any torsinA expression. Kind of data set: 6-OHDA dopaminergic neurodegeneration in worms without torsinA. The format is in vivo, C. elegans. The note with it: no torsinA expression.
For data set [8], the system named is worms expressing Punc-54::Q82::GFP+Punc-54::torsinA (ΔE) with a mutant torsinA only. Kind of data set: Protein aggregate assay in worms with mutant torsinA only. It counts as in vivo, C. elegans. As to the method:
C elegans nematodes were grown at 20° C. on NGM plates as described by Brenner (Brenner, Genetics, 1974, 77: 71-94). Several transgenic C. elegans lines were used for primary screens of the Prestwick small molecule library. A transgenic worm line expressing Punc-54::Q82-GFP; with both wild type (“wt”) (Punc=54: :torsinA) or mutant (Punc-54::torsinA(ΔE)). Torsin-A expresses a phenotype that results in visible protein aggregation under fluorescent microscope. Transgenic worms were plated on drug plates and progeny were studied for a return to soluble protein. […]
as §3, §4

The test system of data set [9] is transgenic worm line Pdat-1::CAT-2. Kind of data set: Neurodegeneration by overexpression of cat-2 (tyrosine hydroxylase). The format is in vivo, C. elegans. From the text: Overexpression of cat-2, the worm homologue for tyrosine hydroxylase, results in increased intraneuronal dopamine production and a characteristic loss of dopaminergic neurons in 75% of transgenic worms as compared to wild type (Cao et al., J Neurosci, 25(1):3801-3812). Co-expression of worm or human torsin proteins reduces the loss of dopaminergic neurons to a slight degree although neuronal degeneration is still present. The purpose of these experiments was to determine the effect of small molecule compounds in the Prestwick library in another different C. elegans model of neurodegeneration.
Worms were cultured using the same methods described above. A transgenic worm line expressing Pdat-1::CAT-2 expresses a phenotype that results in visible neurodegeneration at all developmental stages in an integrated line, in which only approximately 55% of 7 day old animals maintained all four CEP neurons. […] Compound 166 is an example of one such compound.
To further examine the neuroprotective effect of meclofenamic acid and lidocaine, we used a transgenic line (Pdat-1::CAT-2) we previously described (Cao et al., J Neurosci, 2005, 25(1): 3801-3812). Overexpression of cat-2, the C. elegans homolog of the tyrosine hydroxylase (“TH”) gene, causes a high level of DA production and as a result, DA neuron degeneration is observed (Cao et al., J Neurosci, 2005, 25(1): 3801-3812). […] We also tested whether meclofenamic acid was able to suppress CAT-2-induced neurodegeneration. […] Therefore, meclofenamic acid can protect DA neurons from degeneration produced by overexpression of the dopamine precursor, tyrosine hydroxylase.

The mark [10] stands for this setting: Pdat-1::GFP::DAT-1, listed as Meclofenamic acid sodium salt.
Setting [11] is: Pdat-1::GFP::DAT-1, listed as meclofenamic acid.

For the molecule `CCn1cc(C(=O)O)c(=O)c2ccc(C)nc21` [Compound 187, Nalidixic Acid], the “preventative effect on protein aggregation” value in [1] was “seem to be beneficial”. For the same molecule, the “reduction of protein aggregation” value in data set [2] was “reduced protein aggregation”. Besides, in [3], the “enhanced DA neuron survival” value was “no significant neuroprotection”. The half-life entry in [4] is given as “about 90 minutes”. In addition, in [5], the “Specificity in worm assay” value is “wt torsinA”. Besides, the “enhanced wild type DA neuron survival” value in data set [6] was 28.9±4.9%.

Consider `Cc1ccc(Cl)c(Nc2ccccc2C(=O)O)c1Cl` [Compound 206, Meclofenamic acid sodium salt], for which, in the data set on GFP::DAT-1 (Pdat-1::GFP::DAT-1, water control 0%), the “Worms with no GFP” value stood at 4.2%. For the same molecule, the “Neurons with cell body GFP only” value in the data set on GFP::DAT-1 (Pdat-1::GFP::DAT-1, water control 30%) turned out to be 51.1%^e. Also, in the data set on GFP::DAT-1 (setting [10]), the “Neurons with cell body and dendritic/axonal GFP” value worked out at 44.7%^d; the “Mean pixel intensity of cell bodies ± SEM (fluorescence intensity)” value was found to be 1740 ± 64 A.U. In addition, in the data set with GFP::DAT-1 (setting [11]), the “Neurons with cell body and dendritic/axonal GFP” value amounted to 44.7%; the “Mean pixel intensity of cell bodies ± SEM (fluorescence intensity)” value came out at 1740 A.U. Also, the “effect on GFP::DAT-1 level” value with GFP::DAT-1 (result in words) is “can down-regulate the level of DAT-1 protein directly”. Also, the “preventative effect on protein aggregation” value in data set [1] was “seem to be beneficial”. Further, the “reduction of 6-OHDA-mediated neurodegeneration” value in [7] is given as “reduced the 6-OHDA-mediated neurodegeneration”. Further, the “enhanced DA neuron survival” value in data set [3] was found to be 25±1.2%. The reduction of aggregation result in data set [8] is “reduced aggregation”. Besides, in [9] (Pdat-1::CAT-2), the “neuroprotective effect against CAT-2-induced neurodegeneration” value is on record as 19±1.1%. For the same molecule, the “neuroprotective action on dopaminergic neurons overexpressing cat-2” value in [9] (Pdat-1::CAT-2, result in words) was “demonstrated a reduction in the standardized decrease in dopaminergic neurodegeneration”. Besides, the “enhanced wild type DA neuron survival” value in data set [6] was “failed to show any significant neuroprotection”.
